Values quoted from earlier work as cited in publication PMC8339258 (Frontiers in Pharmacology, 2021).

- t1/2 (comparison in discussion, ref not given): > 100 h
- terminal half-life (ref Hüttner et al., 2008, Heise et al., 2009, Blech al., 2010, Sarashina et al.): 142 h
SMILES: CC#CCn1c(N2CCC[C@@H](N)C2)nc2c1c(=O)n(Cc1nc(C)c3ccccc3n1)c(=O)n2C [linagliptin, (R)-8-(3-Amino-piperidin-1-yl)-7-but-2-ynyl-3-methyl-1-(4-methyl-quinazolin-2-ylmethyl)-3,7-dihydro-purine-2,6-dione]
